Experimental findings from US5763596A, “C-4' modified adenosine kinase inhibitors” (Metabasis Therapeutics, Inc., priority 1996, dated 1998) are described below.

One assay deals with Rats (male, Simonsen). Put plainly: formalin paw model. Format: in vivo, rat. Details: concentration or dose not given beside the values. Conditions: oral, 90 min before formalin. As to the method:
In this assay, injection of formalin, an irritant, into the hindpaw of rats typically evokes a biphasic response of pain-related behaviors. Phase 1 of the response which is brief, lasting approximately 0-5 min post-injection,is followed by a more prolonged phase 2, lasting approximately 10-80 min post-injection. Phase 1 behavior is thought to be a direct effect of the irritant on nociceptors at the injection site while phase 2 behavior is thought to include a hyperalgesic component mediated by sensitization of neuronal elements within the spinal cord. Studies from other laboratories have found the first portion of Phase 2 (sometimes referred to as Phase 2a) to be most responsive to pharmacological manipulation.
Rats (male, Simonsen) weighing between 100-200 g, are used in the present experiments. For screening purposes drugs are administered orally 90 min prior to initiation of formalin test. At designated intervals the animals in groups of 4 are placed individually in a small animal restrainer with the right hindpaw accessible through a hole in the bottom of the restrainer. The formalin paw assay is initiated by the injection using a 30G needle of 50 μl of a 5% formalin solution in saline into the right plantar surface of each hindpaw. The rat is then immediately placed in a separate plexiglass box and scoring (described below) of the animal's behavior is begun at 1.7 min after formalin injection. The instantaneous behavior of each animal in a group of 4 was observed and assigned a score once in each 20 second interval. This sequence is repeated over a 30 min period. The scoring protocol is an adaptation of the method published by Dubuisson and Dennis (Pain 4:161-174, 1977) which assigns a score from 0-3 as follows:
0--no discernible favoring of injected paw, weight evenly distributed
1--injected paw is favored, rests lightly on floor
2--injected paw is elevated
3--injected paw is vigorously licked, bitten or shake
Scores are continuously recorded directly onto an Excel spreadsheet. […] 2) the total number of incidences specifically of licking/biting behavior is summed over Phase 2 and mean values determined from 6 different animals with results expressed as % inhibition compared to vehicle control.

Assay [1] deals with male SA rats. Put plainly: anticonvulsant activity, maximal electroshock (MES) model. Format: in vivo. Conditions: Rattus norvegicus, ip, 1 h before MES; >5 / <5: fewer / more than 50% of animals inhibited at 5 mg/kg in initial screen. How it is done: The anticonvulsant activity of the tested compounds was evaluated in male SA rats (100-150 g, Simonsen) using the maximal electroshock (MES) model described in Swinyard et al., Antiepileptic Drugs, 3d Ed. at 85-102 (Levy, et al., eds.), NY: Raven Press (1989). The rats were maintained on a 12/12 light/dark cycle in temperature controlled facilities with free access to food and water. For p.o. administration, the animals are fasted overnight, prior to the experiment. One hour prior to seizure testing, the animals were injected interperitoneally (ip) or orally (per os, po) with one of various doses of test compound dissolved in DMSO or PEG 400.
Maximal electroshock seizures (MES) were induced by administering a 150 mA, 60 Hz current for 0.2 seconds via corneal electrodes using a Wahlquist Model H stimulator. […] This endpoint was expressed as the percentage of animals in which the response was inhibited. Typically, compounds were screened initially at one hour following a dose of 5 mg/kg ip. […] The results for exemplary compounds of the invention are set forth in Table 8, expressed as ED50 values.
(In general: In the maximal electroshock model the usual endpoint is tonic extension of the hind limbs.)

The test system of the next assay is male Lewis rats. Put plainly: adjuvant arthritis. Format: in vivo, rat. As to the method:
Heat-killed Mycobacterium butyricum was ground to a find powder and suspended in heavy mineral oil at 10 mg/ml. The suspension was injected subcutaneously into the base of the tail of male Lewis rats at 0.1 ml per rat. This immunization procedure induces an agressive arthritis that is apparent at day 10-12 and rapidly worsens. The volumes of the hind paws were measured before immunization and on days 12, 15 and 20 after immunization. The baseline paw volume was subtracted from the arthritic volumes to yield paw swelling. AK inhibitors were given by daily oral gavage beginning on day 4 after immunization, using polyethylene glycol-400 as the vehicle. Control rats received vehicle only. Percent inhibition was calculated based on paw swelling in AK inhibitor treated group compared to vehicle treated group, and is reported in Table 11.

The target in a further assay is adenosine kinase. The assay is described as follows: adenosine kinase (AK) inhibition. Format: biochemical, pig heart or recombinant human. The note with it: 0.5 μM [U-14C] adenosine, pH 7.0, 20 minutes. How it is done:
Adenosine kinase activity was measured essentially as described by Yamada et al. (Yamada, Y., Goto, H., Ogasawara, N. (1988) Biochim. Biophys. Acta 660, 36-43.) with a few minor modifications. […] Natl. Acad. Sci. […] The reactions were incubated for 20 minutes at […] The assay was quenched upon spotting 30 μL aliquots onto 2 cm^2 pieces of Whatman DE81 anion exchange paper. The papersquares were washed for 3 minutes in 6 L distilled/deionized water to remove the unreacted adenosine. The washed squares were rinsed in 95% ethanol and dried in an oven at 100° C. for 10 minutes. The amount of ^14 C-AMP was quantified by scintillation counting.

The subject of assay [2] is male SA rats. The assay is described as follows: rat skin lesion model, inhibition of neutrophil accumulation induced by carrageenan. The format is in vivo. As to the method:
The dorsal skin of male SA rats was shaved and carrageenan (Type λ) or phosphate-buffered saline was injected intradermally. Three hours later, the injection sites were biopsied and weighed. Neutrophil content of the skin biopsies was measured as the quantity of myeloperoxidase (MPO) present in a tissue homogenate. The excised, weighed skin pieces were placed in 4 ml 0.5% mixed alkyl trimethylammonium bromide and homogenized at the highest speed for 15 seconds in a Polytron homogenizer (Brinkmann Instruments, Westbury, N.Y.). Lipids were extracted by adding 1 ml of dichloromethane to the homogenate, vortexing vigorously, and centrifuging at 1000 g, 5° C. for 15 min. Fifty μl of each supernatant was added in duplicate to a 96 well assay plate, along with dilutions of human myeloperoxidase standard. Potassium phosphate buffer (pH 6.1) containing 0.36 mg/ml of o-dianisidine dihydrochloride and 0.001% hydrogen peroxide was added (200 μl/well), and the absorbance at 450 nm was read after 5 min incubation at room temperature. The myeloperoxidase content of each skin piece was calculated from a standard curve constructed using least-square regression, and expressed as units of MPO/g of tissue.
AK inhibitors were administered orally using polyethylene glycol-400 as vehicle or intraperitoneally using dimethylsulfoxide as vehicle, at indicated time before skin lesion injection. For each experiment, the average of all values from saline-induced lesions was calculated. This baseline value was then subtracted from values obtained from carrageenan-induced lesions. Percent inhibition for AK inhibitors were calculated from these baseline-corrected values.

The mark [3] stands for this setting: 10 mg/kg daily oral gavage from day 4.
[4] abbreviates: 20 mg/kg daily oral gavage from day 4.

SMILES strings stand for the structures. Where only a bound is given, the exact number is not on record here.

As usually defined, the ED50 is the midpoint of the dose-response relation. Broadly, the IC50 is the midpoint of a concentration-inhibition curve. In the case of `O[C@@H]1[C@H](O)CO[C@H]1n1cc(-c2ccccc2)c2c(Nc3ccc(F)cc3)ncnc21` [compound 28], the “% Inhibition Phase 1 Composite score” value in the assay on Rats (male, Simonsen) (1.7-5 min post-formalin) came out at 9.2%. In addition, the “% Inhibition Phase 2 Composite score” value in the assay with Rats (male, Simonsen) (10.3-30 min post-formalin) was 37.4%. Also, in the assay with Rats (male, Simonsen) (Phase 2), the “% Inhibition Phase 2. Licking/biting” value came out at 76.1%. The ED50 at 5 mg/kg in the assay with male SA rats [1] is < 5 mg/kg. In addition, the entries for the “% inh at day 12 (paw swelling)” value in the assay on male Lewis rats (setting [3]) and with male Lewis rats (setting [4]) were 29 ± 7% and 52 ± 23%, respectively. The “% inh at day 15 (paw swelling)” value in the assay with male Lewis rats (setting [3]) stood at 22 ± 4%; in the assay on male Lewis rats (setting [4]), 52 ± 22%. In the assay on male Lewis rats (setting [4]), the “% inh at day 20 (paw swelling)” value is reported as 40 ± 8%. At adenosine kinase, this compound gave an IC50 of 28 nM. For the same compound, the “% inhibition of neutrophil accumulation” value came out at 18% in the assay on male SA rats [2] (i.p., pretreatment 30 min, 3 mg/kg); 62% with male SA rats [2] (i.p., pretreatment 30 min, 10 mg/kg); 79% in the assay with male SA rats [2] (i.p., pretreatment 30 min, 30 mg/kg); 49% in the assay with male SA rats [2] (i.p., pretreatment 60 min, 10 mg/kg); 60% with male SA rats [2] (i.p., pretreatment 120 min, 10 mg/kg); 28% in the assay with male SA rats [2] (i.p., pretreatment 240 min, 10 mg/kg). Also, the “% inhibition of neutrophil accumulation” value in the assay with male SA rats [2] (p.o., pretreatment 60 min, 10 mg/kg) is recorded as 28%; in the assay with male SA rats [2] (p.o., pretreatment 60 min, 20 mg/kg), 40%; in the assay with male SA rats [2] (p.o., pretreatment 120 min, 20 mg/kg), 84%; with male SA rats [2] (p.o., pretreatment 240 min, 20 mg/kg), 77%; in the assay with male SA rats [2] (p.o., pretreatment 420 min, 20 mg/kg), 20%.
